Columns and labels:
Format in all cases: cell-based
Nrf2 [1] = molecular target: T1, Nrf2 (Homo sapiens, UniProt Q16236); assay: Protein degradation assay in huH1 cells by Western blot; design: tested for protein degradation in huH1 cells; host or cells: huH1 (Huh1) human hepatoma cells
T1 sequence (Q16236 1-605): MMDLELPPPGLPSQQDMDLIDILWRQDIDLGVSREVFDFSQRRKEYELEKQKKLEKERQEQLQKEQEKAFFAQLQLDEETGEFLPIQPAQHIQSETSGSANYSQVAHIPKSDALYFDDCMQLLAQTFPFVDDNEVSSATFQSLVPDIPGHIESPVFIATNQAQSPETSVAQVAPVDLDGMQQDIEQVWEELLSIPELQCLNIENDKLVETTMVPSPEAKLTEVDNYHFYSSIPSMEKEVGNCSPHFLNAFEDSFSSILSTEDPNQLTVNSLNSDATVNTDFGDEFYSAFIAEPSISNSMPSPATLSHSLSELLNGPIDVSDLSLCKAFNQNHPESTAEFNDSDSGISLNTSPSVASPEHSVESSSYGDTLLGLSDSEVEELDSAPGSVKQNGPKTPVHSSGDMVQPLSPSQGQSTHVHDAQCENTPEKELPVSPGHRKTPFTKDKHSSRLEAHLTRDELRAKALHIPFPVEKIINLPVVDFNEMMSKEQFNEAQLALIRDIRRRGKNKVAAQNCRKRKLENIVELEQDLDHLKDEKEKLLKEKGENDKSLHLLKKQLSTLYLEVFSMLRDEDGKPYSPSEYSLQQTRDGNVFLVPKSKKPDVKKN
Method: Representative Compounds of the Disclosure were tested for protein degradation in huH1 cells (Vendor: JCRB: Cat #JCRB0199; Description: Human hepatoma) by Western blot analysis according to the following general protocol.
Day 0: Plated the Huh1 cells into 10-cm dishes (1.5×10^6/dish)
Day 1: Treated the cells with compounds at five concentrations, e.g., 0.01 μM, 0.04 μM, 0.11 μM, 0.33 μM and 1 μM; or 0.4 μM, 1.1 μM, 3.3 μM, 10 μM, and 30 μM.
Day 4: Harvested the cell pellets, spilt 1/3 of the pellet to extract RNA by Nucleospin RNA plus kit and measure Nrf2 and GPX2 by RT-PCR, the remaining 2/3 of the pellet to run Western blot analysis.
• a) Cell samples were lysed with lysis buffer (1×Cell lysis buffer added Protease inhibitor and phosphatase inhibitor) on ice for 5˜10 min and spun at 15,000 rpm in an Eppendorf microfuge for 15 min at 4° C. • b) The protein supernatant was collected in a new 1.5 ml tube and the protein concentrations were determined by the Pierce BCA kit (Thermo #23225). • c) Mixed protein sample with 5×SDS-PAGE loading buffer. • d) Boiled for 5 min. • e) Cooled at RT or on ice for 5 min. • f) Flash spun to bring down condensation prior to loading gel.
• a) After flash spinning the samples, 20 μg protein were loaded into the wells. • b) Using SDS-PAGE running buffer. • c) Run with Constant Voltage (70 V) for 1.5-2 hr. Membrane transfer • a) Assembled “sandwich” for Invitrogen iBlot. • b) Transferred for 9 min using P0 program. • c) Immersed membrane in Odyssey blocking buffer or 5% BSA for at least 1 hr.
• a) Incubated with 1st Antibody 1:500 diluted in blocking buffer overnight at 4° C. • b) Washed 4×15 min with 0.05-0.1% Tween 20 in TBS. • c) Incubated with secondary antibody 1:10K diluted in blocking buffer for at least 1 hr at RT. • d) Washed 3×15 min with 0.05-0.1% Tween 20 in TBS. • e) Detected with ODYSSEY (Li—COR) The results are provided in Table 5.

LK-2 = assay: Cancer cell viability, LK-2 (CellTiter-Glo); settings: Homo sapiens, LK-2, 72 h, LK-2 cells, 3 days, read-out: Cellular IC50 (μM) LK-2
Method: Representative Compounds of the Disclosure were tested in A549 (Vendor: ATCC; Cat #CCL-185; Description: lung, carcinoma) and/or LK-2 (Vendor: Riken; Cat #RCB1970; Description: lung, squamous cell carcinoma) cellular viability assays according to the following general protocol. • 1. Observed the cells under microscope. • 2. Aspirated the media and added 5 mL trypsin and incubate for 3 mins. • 3. Added 10 mL fresh media and harvested all the cells in to 15 mL tubes. • 4. Centrifuged the cells at 1000 rpm for 5 mins. • 5. Re-suspended the cells with 11 mL media and took 1 mL to determine the cell number and viability. • 6. Prepared cells suspension at 20 K/mL (A549) or 35 K/mL (LK-2) • 7. Seeded the cells into 96-well plate and incubated for overnight. • 8. Added compounds into each well with a HPD300 machine (nine three-fold dilutions typically starting at 30 µM final concentration) and incubated for 3 days. • 9. After 3 days, took out the plates from the incubator and observed the cells under microscope. • 10. Passed a film at the bottom of the plates. • 11. Equilibrated the plate and its contents at room temperature for approximately 30 minutes. • 12. Thawed the CellTiter-Glo® Buffer and equilibrated to room temperature prior to use. • 13. Equilibrated the lyophilized CellTiter-Glo® Substrate to room temperature prior to use. • 14. Transferred 100 ml of CellTiter-Glo® Buffer into the amber bottle containing CellTiter-Glo® Substrate to reconstituted the lyophilized enzyme/substrate mixture. • 15. Mixed by gently vortexing, swirling or inverting the contents to obtain a homogeneous solution. • 16. Added 100 μL CellTiter-Glo® Reagent into each well • 17. Mixed contents for 15 minutes on an orbital shaker to induce cell lysis. • 18. Recorded luminescence with EnSpire machine. • 19. Passed the raw data into the file and analyzed the data with XLfit software.

Nrf2 [2] = molecular target: T1, Nrf2; assay: Nrf2 degradation in A549 HiBiT-Nrf2 cells, Nano-Glo HiBiT lytic detection (HiBiT readout); design: host or cells: A549 HiBiT-Nrf2 cells (engineered line bought from Promega)
In short: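 A549 HiBiT-Nrf2 cells seeded at 5,000 cells/well in Ham's F-12 with 10% FBS, then treated next day for 6 h and 20 h at 37 °C, 5% CO2. Nrf2 degradation read by Nano-Glo HiBiT lytic luminescence after 30 min at room temperature; staurosporine served as control.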

A549 = assay: Cancer cell viability, A549 (CellTiter-Glo); settings: Homo sapiens, 72 h, A549 cells, 3 days, read-out: Cellular IC50 (μM) A549
In short: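 A549 and/or LK-2 lung carcinoma cells seeded overnight (20 K/mL A549; 35 K/mL LK-2), then exposed to compound for 3 days. Viability read as CellTiter-Glo luminescence after 15 min lysis; data fitted to curves.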

[3] = X marks the class >10 μM, read-out: DC50 huHI1 cells >10 μM
[4] = 6 h, read-out: DC50 (nM) at 6 h
[5] = 20 h, read-out: DC50 (nM) at 20 h

| DC50 (Nrf2 [1]; [3]) | DC50 (Nrf2 [1]; X marks the class <100 nM, read-out: DC50 huHI1 cells <100 nM) | IC50 (LK-2) | DC50 (Nrf2 [2]; [4]) | DC50 (Nrf2 [2]; [5]) | IC50 (A549) | SMILES |
| --- | --- | --- | --- | --- | --- | --- |
| > 10000 nM | – | – | – | – | – | Cc1ccccc1C(=O)N1CCc2cc(-c3nc(NC(=O)Cc4cccc(OCCOCCOCCOCCNc5cccc6c5C(=O)N(C5CCC(=O)NC5=O)C6=O)c4)sc3C)ccc21 (stereo not shown) [Cpd. No. 3, 2-(3-(2-(2-(2-(2-((2-(2,6-dioxopiperidin-3-yl)-1,3-dioxoisoindolin-4-yl)amino)ethoxy)ethoxy)ethoxy)ethoxy)phenyl)-N-(5-methyl-4-(1-(2-methylbenzoyl)indolin-5-yl)thiazol-2-yl)acetamide] |
| > 10000 nM | – | – | – | – | – | Cc1ccccc1C(=O)N1CCc2cc(-c3nc(NC(=O)Cc4cccc(OCCOCCOCCOCCOCCNc5cccc6c5C(=O)N(C5CCC(=O)NC5=O)C6=O)c4)sc3C)ccc21 (stereo not shown) [Cpd. No. 4, 2-(3-((14-((2-(2,6-dioxopiperidin-3-yl)-1,3-dioxoisoindolin-4-yl)amino)-3,6,9,12-tetraoxatetradecyl)oxy)phenyl)-N-(5-methyl-4-(1-(2-methylbenzoyl)indolin-5-yl)thiazol-2-yl)acetamide] |
| > 10000 nM | – | – | – | – | – | Cc1ccccc1C(=O)N1CCc2cc(-c3nc(NC(=O)Cc4cccc(OCCOCCOCCOCCOCCOCCNc5cccc6c5C(=O)N(C5CCC(=O)NC5=O)C6=O)c4)sc3C)ccc21 (stereo not shown) [Cpd. No. 5, 2-(3-((17-((2-(2,6-dioxopiperidin-3-yl)-1,3-dioxoisoindolin-4-yl)amino)-3,6,9,12,15-pentaoxaheptadecyl)oxy)phenyl)-N-(5-methyl-4-(1-(2-methylbenzoyl)indolin-5-yl)thiazol-2-yl)acetamide] |
| – | < 100 nM | – | – | – | – | Cc1ccccc1C(=O)N1CCc2cc(-c3nc(NC(=O)Cc4cccc(OCCOCCOCCOc5cccc6c5C(=O)N(C5CCC(=O)NC5=O)C6=O)c4)sc3C)ccc21 (stereo not shown) [Cpd. No. 7, 2-(3-(2-(2-(2-((2-(2,6-dioxopiperidin-3-yl)-1,3-dioxoisoindolin-4-yl)oxy)ethoxy)ethoxy)ethoxy)phenyl)-N-(5-methyl-4-(1-(2-methylbenzoyl)indolin-5-yl)thiazol-2-yl)acetamide] |
| > 10000 nM | – | – | – | – | – | Cc1ccccc1C(=O)N1CCc2cc(-c3nc(NC(=O)Cc4cccc(OCCOCCOCCOCCOc5cccc6c5C(=O)N(C5CCC(=O)NC5=O)C6=O)c4)sc3C)ccc21 (stereo not shown) [Cpd. No. 8, 2-(3-(2-(2-(2-(2-((2-(2,6-dioxopiperidin-3-yl)-1,3-dioxoisoindolin-4-yl)oxy)ethoxy)ethoxy)ethoxy)ethoxy)phenyl)-N-(5-methyl-4-(1-(2-methylbenzoyl)indolin-5-yl)thiazol-2-yl)acetamide] |
| – | – | > 30 µM | > 3000 nM | > 3000 nM | > 30 µM | Cc1ccccc1C(=O)N1CCc2cc(-c3nc(NC(=O)Cc4cccc(OCCN5CCN(c6cccc7c6C(=O)N(C6CCC(=O)NC6=O)C7=O)CC5)c4)sc3C)ccc21 (stereo not shown) [Cpd. No. 31, 2-(3-(2-(4-(2-(2,6-dioxopiperidin-3-yl)-1,3-dioxoisoindolin-4-yl)piperazin-1-yl)ethoxy)phenyl)-N-(5-methyl-4-(1-(2-methylbenzoyl)indolin-5-yl)thiazol-2-yl)acetamide] |
| – | – | 0.01 µM | < 300 nM | > 3000 nM | 0.03 µM | Cc1sc(NC(=O)Cc2cccc(OCCOCCNc3cccc4c3C(=O)N(C3CCC(=O)NC3=O)C4=O)c2)nc1-c1ccc2c(c1)CCN2C(=O)c1cncn1C (stereo not shown) [Cpd. No. 35, 2-(3-(2-(2-((2-(2,6-dioxopiperidin-3-yl)-1,3-dioxoisoindolin-4-yl)amino)ethoxy)ethoxy)phenyl)-N-(5-methyl-4-(1-(1-methyl-1H-imidazole-5-carbonyl)indolin-5-yl)thiazol-2-yl)acetamide] |
| – | – | 0.03 µM | < 300 nM | < 300 nM | 0.06 µM | Cc1sc(NC(=O)Cc2ccc(F)c(OCCOCCNc3cccc4c3C(=O)N(C3CCC(=O)NC3=O)C4=O)c2)nc1-c1ccc2c(c1)CCN2C(=O)C1CC1 (stereo not shown) [Cpd. No. 36, N-(4-(1-(cyclopropanecarbonyl)indolin-5-yl)-5-methylthiazol-2-yl)-2-(3-(2-(2-((2-(2,6-dioxopiperidin-3-yl)-1,3-dioxoisoindolin-4-yl)amino)ethoxy)ethoxy)-4-fluorophenyl)acetamide] |
| – | – | 0.01 µM | < 300 nM | < 300 nM | 0.04 µM | Cc1sc(NC(=O)Cc2ccc(F)c(OCCOCCNc3cccc4c3C(=O)N(C3CCC(=O)NC3=O)C4=O)c2)nc1-c1ccc2c(c1)CCN2C(=O)c1cncn1C (stereo not shown) [Cpd. No. 37, 2-(3-(2-(2-((2-(2,6-dioxopiperidin-3-yl)-1,3-dioxoisoindolin-4-yl)amino)ethoxy)ethoxy)-4-fluorophenyl)-N-(5-methyl-4-(1-(1-methyl-1H-imidazole-5-carbonyl)indolin-5-yl)thiazol-2-yl)acetamide] |
| – | – | 0.08 µM | < 300 nM | < 300 nM | 0.11 µM | Cc1sc(NC(=O)Cc2cccc(OCCCCCNc3cccc4c3C(=O)N(C3CCC(=O)NC3=O)C4=O)c2)nc1-c1ccc2c(c1)CCN2C(=O)C1CC1 (stereo not shown) [Cpd. No. 40, N-(4-(1-(cyclopropanecarbonyl)indolin-5-yl)-5-methylthiazol-2-yl)-2-(3-((5-((2-(2,6-dioxopiperidin-3-yl)-1,3-dioxoisoindolin-4-yl)amino)pentyl)oxy)phenyl)acetamide] |

From patent US20260055097A9, “NRF2 PROTEIN DEGRADERS” (Ganymede Oncology, Inc., priority 2022, published 2026)
